Assay results: US8759500B2, “Crystalline forms of a macrolide, and uses therefor” (Cempra Pharmaceuticals, Inc., priority 2010, dated 2014)

Legend:
Assay type in all cases: physicochemical
[1] = Stability of Form I and Form II under various storage conditions
From the text: In each case, the test material was first placed in Primary Packaging Material (LLDPE bag within a HMHDPE/LDPE/LDPE blend bag, and then heat sealed). The Primary Packaging Material was placed in Secondary Packaging Material (HDPE drum). All other impurities were less than 1% at each time point.

[2] = Mean intrinsic dissolution studies
From the text: Mean intrinsic dissolution rates for exemplary batches of the two forms are shown in Table cC-2 for 3 batches of Form I (SD and % CV for one batch shown) and for Form II.

[3] = Interconversion slurries of Form I and Form II
Method: As shown in the interconversion of slurries experiment summarized below in the Examples in Table B, slurries of Forms I and II are prepared in 2-propanol (IPA) and […] (MEK) at ambient, sub-ambient, and elevated temperatures. In 2-propanol, conversion of Form I to Form II appears to be solubility driven at ambient and sub-ambient temperatures, with little apparent change observed in the ratio of Forms I and II by XRPD analysis over 3 days. Extending the interconversion period to 8 days at room temperature left only a trace of Form I remaining. In 2-propanol, at elevated temperature, only Form II is obtained.
Interconversion studies by slurrying of Form I and Form II are shown in the following Table B in which the starting solid was a mixture of Form I and Form II; IPA is isopropyl alcohol (isopropanol) and MEK is methyl ethyl ketone (2-butanone).

SMILES: CC[C@H]1OC(=O)[C@@](C)(F)C(=O)[C@H](C)[C@@H](O[C@@H]2O[C@H](C)C[C@H](N(C)C)[C@H]2O)[C@](C)(OC)C[C@@H](C)C(=O)[C@H](C)[C@H]2N(CCCCn3cc(-c4cccc(N)c4)nn3)C(=O)O[C@]12C [Form I (Lot 4)]
- 3-Ethynylaniline ([1]; 2-8° C., 3 Month): 0.01%
- Assay (on hydrous basis) ([1]; 2-8° C., 3 Month): 98.4%
- Chromatographic Purity ([1]; 2-8° C., 3 Month): 98.1%
- Water ([1]; 2-8° C., 3 Month): 1.56%
- 3-Ethynylaniline ([1]; 2-8° C., 6 Month): 0.01%
- Assay (on hydrous basis) ([1]; 2-8° C., 6 Month): 98.3%
- Chromatographic Purity ([1]; 2-8° C., 6 Month): 98.3%
- Water ([1]; 2-8° C., 6 Month): 1.47%
- 3-Ethynylaniline ([1]; 2-8° C., 12 Month): Not Detected
- Assay (on hydrous basis) ([1]; 2-8° C., 12 Month): 98.2%
- Chromatographic Purity ([1]; 2-8° C., 12 Month): 98.4%
- Water ([1]; 2-8° C., 12 Month): 1.51%
- 3-Ethynylaniline ([1]; 2-8° C., Initial): 0.01%
- Assay (on hydrous basis) ([1]; 2-8° C., Initial): 99.0%
- Chromatographic Purity ([1]; 2-8° C., Initial): 98.2%
- Water ([1]; 2-8° C., Initial): 0.92%
- 3-Ethynylaniline ([1]; 25° C./60% RH, 3 Month): 0.01%
- Assay (on hydrous basis) ([1]; 25° C./60% RH, 3 Month): 98.3%
- Chromatographic Purity ([1]; 25° C./60% RH, 3 Month): 98.1%
- Water ([1]; 25° C./60% RH, 3 Month): 1.59%
- 3-Ethynylaniline ([1]; 25° C./60% RH, 6 Month): Not Detected
- Assay (on hydrous basis) ([1]; 25° C./60% RH, 6 Month): 98.2%
- Chromatographic Purity ([1]; 25° C./60% RH, 6 Month): 98.4%
- Water ([1]; 25° C./60% RH, 6 Month): 1.75%
- 3-Ethynylaniline ([1]; 25° C./60% RH, 12 Month): Not Detected
- Assay (on hydrous basis) ([1]; 25° C./60% RH, 12 Month): 98.1%
- Chromatographic Purity ([1]; 25° C./60% RH, 12 Month): 98.4%
- Water ([1]; 25° C./60% RH, 12 Month): 1.78%
- 3-Ethynylaniline ([1]; 25° C./60% RH, Initial): 0.01%
- Assay (on hydrous basis) ([1]; 25° C./60% RH, Initial): 99.0%
- Chromatographic Purity ([1]; 25° C./60% RH, Initial): 98.2%
- Water ([1]; 25° C./60% RH, Initial): 0.92%
- 3-Ethynylaniline ([1]; 40° C./75% RH, 3 Month): 0.01%
- Assay (on hydrous basis) ([1]; 40° C./75% RH, 3 Month): 98.2%
- Chromatographic Purity ([1]; 40° C./75% RH, 3 Month): 98.4%
- Water ([1]; 40° C./75% RH, 3 Month): 1.65%
- 3-Ethynylaniline ([1]; 40° C./75% RH, 12 Month): 0.01%
- Assay (on hydrous basis) ([1]; 40° C./75% RH, 12 Month): 98.1%
- Chromatographic Purity ([1]; 40° C./75% RH, 12 Month): 98.3%
- Water ([1]; 40° C./75% RH, 12 Month): 1.82%
- 3-Ethynylaniline ([1]; 40° C./75% RH, Initial): 0.01%
- Assay (on hydrous basis) ([1]; 40° C./75% RH, Initial): 99.0%
- Chromatographic Purity ([1]; 40° C./75% RH, Initial): 98.2%
- Water ([1]; 40° C./75% RH, Initial): 0.92%

SMILES: CC[C@H]1OC(=O)[C@@](C)(F)C(=O)[C@H](C)[C@@H](O[C@@H]2O[C@H](C)C[C@H](N(C)C)[C@H]2O)[C@](C)(OC)C[C@@H](C)C(=O)[C@H](C)[C@H]2N(CCCCn3cc(-c4cccc(N)c4)nn3)C(=O)O[C@]12C [Form I Batch B]
- Mean intrinsic dissolution rate ([2]; 0.1N Hydrochloric Acid): 10.6 mg/min/cm^2
- Mean intrinsic dissolution rate ([2]; Acetate buffer, pH 4.5): 2.8 mg/min/cm^2
- Mean intrinsic dissolution rate ([2]; Phosphate buffer, pH 6.8): 0.03 mg/min/cm^2
- Mean intrinsic dissolution rate ([2]; Phosphate buffer, pH 7.6): 0.001 mg/min/cm^2
- Mean intrinsic dissolution rate ([2]; Water): 0.7 mg/min/cm^2

SMILES: CC[C@H]1OC(=O)[C@@](C)(F)C(=O)[C@H](C)[C@@H](O[C@@H]2O[C@H](C)C[C@H](N(C)C)[C@H]2O)[C@](C)(OC)C[C@@H](C)C(=O)[C@H](C)[C@H]2N(CCCCn3cc(-c4cccc(N)c4)nn3)C(=O)O[C@]12C [Form I Batch A]
- Mean intrinsic dissolution rate ([2]; 0.1N Hydrochloric Acid): 9.4 mg/min/cm^2
- Mean intrinsic dissolution rate ([2]; Acetate buffer, pH 4.5): 2.1 mg/min/cm^2
- Mean intrinsic dissolution rate ([2]; Phosphate buffer, pH 6.8): 0.004 mg/min/cm^2
- Mean intrinsic dissolution rate ([2]; Phosphate buffer, pH 7.6): 0.02 mg/min/cm^2
- Mean intrinsic dissolution rate ([2]; Water): 2.0 mg/min/cm^2

SMILES: CC[C@H]1OC(=O)[C@@](C)(F)C(=O)[C@H](C)[C@@H](O[C@@H]2O[C@H](C)C[C@H](N(C)C)[C@H]2O)[C@](C)(OC)C[C@@H](C)C(=O)[C@H](C)[C@H]2N(CCCCn3cc(-c4cccc(N)c4)nn3)C(=O)O[C@]12C [Form I (Lot 3)]
- 3-Ethynylaniline ([1]; 2-8° C., 3 Month): 0.01%
- Assay (on hydrous basis) ([1]; 2-8° C., 3 Month): 98.9%
- Chromatographic Purity ([1]; 2-8° C., 3 Month): 98.1%
- Water ([1]; 2-8° C., 3 Month): 1.63%
- 3-Ethynylaniline ([1]; 2-8° C., 6 Month): Not Detected
- Assay (on hydrous basis) ([1]; 2-8° C., 6 Month): 98.8%
- Chromatographic Purity ([1]; 2-8° C., 6 Month): 98.4%
- Water ([1]; 2-8° C., 6 Month): 1.61%
- 3-Ethynylaniline ([1]; 2-8° C., 12 Month): Not Detected
- Assay (on hydrous basis) ([1]; 2-8° C., 12 Month): 98.7%
- Chromatographic Purity ([1]; 2-8° C., 12 Month): 98.5%
- Water ([1]; 2-8° C., 12 Month): 1.69%
- 3-Ethynylaniline ([1]; 2-8° C., Initial): 0.01%
- Assay (on hydrous basis) ([1]; 2-8° C., Initial): 99.5%
- Chromatographic Purity ([1]; 2-8° C., Initial): 98.3%
- Water ([1]; 2-8° C., Initial): 1.11%
- 3-Ethynylaniline ([1]; 25° C./60% RH, 3 Month): 0.01%
- Assay (on hydrous basis) ([1]; 25° C./60% RH, 3 Month): 98.7%
- Chromatographic Purity ([1]; 25° C./60% RH, 3 Month): 98.1%
- Water ([1]; 25° C./60% RH, 3 Month): 1.65%
- 3-Ethynylaniline ([1]; 25° C./60% RH, 6 Month): Not Detected
- Assay (on hydrous basis) ([1]; 25° C./60% RH, 6 Month): 98.6%
- Chromatographic Purity ([1]; 25° C./60% RH, 6 Month): 98.3%
- Water ([1]; 25° C./60% RH, 6 Month): 1.71%
- 3-Ethynylaniline ([1]; 25° C./60% RH, 12 Month): Not Detected
- Assay (on hydrous basis) ([1]; 25° C./60% RH, 12 Month): 98.5%
- Chromatographic Purity ([1]; 25° C./60% RH, 12 Month): 98.4%
- Water ([1]; 25° C./60% RH, 12 Month): 1.75%
- 3-Ethynylaniline ([1]; 25° C./60% RH, Initial): 0.01%
- Assay (on hydrous basis) ([1]; 25° C./60% RH, Initial): 99.5%
- Chromatographic Purity ([1]; 25° C./60% RH, Initial): 98.3%
- Water ([1]; 25° C./60% RH, Initial): 1.11%
- 3-Ethynylaniline ([1]; 40° C./75% RH, 3 Month): 0.01%
- Assay (on hydrous basis) ([1]; 40° C./75% RH, 3 Month): 98.5%
- Chromatographic Purity ([1]; 40° C./75% RH, 3 Month): 98.0%
- Water ([1]; 40° C./75% RH, 3 Month): 1.68%
- 3-Ethynylaniline ([1]; 40° C./75% RH, 12 Month): 0.01%
- Assay (on hydrous basis) ([1]; 40° C./75% RH, 12 Month): 98.3%
- Chromatographic Purity ([1]; 40° C./75% RH, 12 Month): 98.3%
- Water ([1]; 40° C./75% RH, 12 Month): 1.84%
- 3-Ethynylaniline ([1]; 40° C./75% RH, Initial): 0.01%
- Assay (on hydrous basis) ([1]; 40° C./75% RH, Initial): 99.5%
- Chromatographic Purity ([1]; 40° C./75% RH, Initial): 98.3%
- Water ([1]; 40° C./75% RH, Initial): 1.11%

SMILES: CC[C@H]1OC(=O)[C@@](C)(F)C(=O)[C@H](C)[C@@H](O[C@@H]2O[C@H](C)C[C@H](N(C)C)[C@H]2O)[C@](C)(OC)C[C@@H](C)C(=O)[C@H](C)[C@H]2N(CCCCn3cc(-c4cccc(N)c4)nn3)C(=O)O[C@]12C [CEM-101 Form A and B Solids]
- XRPD Result ([3]; slurry in IPA, 2-8° C. 3 days): Form I + II
- XRPD Result ([3]; slurry in IPA, 2-8° C. 5 days (8 days total), continuation of previous slurry): Form I + II
- XRPD Result ([3]; slurry in IPA, 60° C. 3 days): Form II
- XRPD Result ([3]; slurry in IPA, RT 3 days): Form I + II
- XRPD Result ([3]; slurry in MEK, 2-8° C. 3 days): Form II
- XRPD Result ([3]; slurry in MEK, 60° C. 3 days (6 days total), continuation with additional solids): Form II
- XRPD Result ([3]; slurry in MEK, RT 3 days): Form II

SMILES: CC[C@H]1OC(=O)[C@@](C)(F)C(=O)[C@H](C)[C@@H](O[C@@H]2O[C@H](C)C[C@H](N(C)C)[C@H]2O)[C@@](C)(OC)C[C@@H](C)C(=O)[C@H](C)[C@H]2N(CCCCn3cc(-c4cccc(N)c4)nn3)C(=O)O[C@]12C [Form I Batch C]
- Mean intrinsic dissolution rate ([2]; 0.1N Hydrochloric Acid): 7.9 mg/min/cm^2
- Mean intrinsic dissolution rate ([2]; Acetate buffer, pH 4.5): 2.7 mg/min/cm^2
- Mean intrinsic dissolution rate ([2]; Phosphate buffer, pH 6.8): 0.02 mg/min/cm^2
- Mean intrinsic dissolution rate ([2]; Water): 1.6 mg/min/cm^2
